Measured values from patent publication US20240124456A1, “AZA-ERGOLINE DERIVATIVE AND PREPARATION METHOD THEREFOR AND APPLICATION THEREOF” (SHANGHAITECH UNIVERSITY, priority 2021, published 2024).

Assays:
dopamine D2 receptors [1] = molecular target: T1, dopamine D2 receptors (Homo sapiens (Human), UniProt P14416); assay: G protein Gαi1-γ9 dissociation BRET, dopamine D2 receptor functional activity; format: cell-based; details: for Emax: read-out: Gai1 BRET Emax % ± SEM
Description: To examine downstream G protein signaling mediated by dopamine D2 receptors, 6 cm dish was used for transfection with 1μg of dopamine D2 receptors, 1μg of Gαi1 fused to seaweed luciferase (Gαi1-Rluc), 1 μg of Gβ3, 1 μg of Gγ9 fused to green fluorescent protein (Gγ9-GFP) and 16 μL of transfection reagent PEI. […] On the third day, the drugs were added for test.
(§1) To examine downstream G-protein signaling pathway mediated by dopamine D2 receptors, on the first day, 6 cm dish was used for transfection with 1μg of dopamine D2 receptors, 1μg of Gαi1 containing C-terminal seaweed luciferase (GGαi1-Rluc), 1 μg of […], 1 μg of Gγ9 containing C-terminal green fluorescent protein (Gγ9-GFP) and 16 μL of PEI. At the same time, in order to examine the downstream f3-arrestin2 signaling pathway mediated by dopamine D2 receptors, on the first day, 6 cm dish was used for transfection with 500 μg of dopamine D2 receptors containing C-terminal seaweed luciferase (D2-Rluc), 500 μg of G protein-coupled receptor kinase 2 (GRK2), 2500 μg of […] containing N-terminal green fluorescent protein (GFP2-ARRB2) and 14 μL of PEI. The next day, the overgrown cells were digested and plated a 96-well plate at the amount of cells contained in a 6 cm culture dish with overgrown cells, and 100 μL of culture medium was added to each well. On the third day, the drugs were added for test. The 96-well plate was taken out from the cell culture room to remove the culture medium, 40 μL of the substrate coelenterazine 400a (final concentration of 5 μM) was added to each well, and then 20 μL of different drugs were added in turn from left to right to ensure that the final concentration of the drugs decreased gradually from bottom to top, and each treatment was repeated twice. Finally, the prepared samples were loaded on machine for test. The machine reading value reflected the intracellular β-arrestin2 on the membrane and the dissociation of G protein trimer. The former indicated the degree of activation of the β-arrestin2 signaling pathway downstream of the dopamine D2 receptors, and the latter indicated the degree of activation of the G protein signaling pathway downstream of the dopamine D2 receptors.

dopamine D2 receptors [2] = molecular target: T1, dopamine D2 receptors; assay: β-arrestin2 recruitment BRET, dopamine D2 receptor functional activity; format: cell-based; details: for Emax: read-out: β-arrestin2 BRET Emax % ± SEM
Description: To examine the downstream f3-arrestin2 signaling pathway mediated by dopamine D2 receptors, 6 cm dish was used for transfection with 500 […] of dopamine D2 receptors fused to seaweed luciferase (D2-Rluc), 500 μg of G protein-coupled receptor kinase 2 (GRK2), 2500 μg of β-arrestin2 fused to green fluorescent protein (GFP2-ARRB2) and 14 μL of transfection reagent PEI. The next day, the overgrown cells were digested and plated a 96-well plate at the amount of cells contained in a 6 cm culture dish with overgrown cells, and 100 μL of culture medium was added to each well. On the third day, the drugs were added for test.
as §1

dopamine D2 receptors [3] = molecular target: T1, dopamine D2 receptors; assay: Radioligand competition binding, affinity for dopamine D2 receptors ([3H]-Methylspiperone); details: [3H]-Methylspiperone (0.3-0.5 nM), HEK-293T membranes; for Ki: I-1 to 19 n=3, I-20 to 27 single determination; for Affinity pKi ± SEM: n=3
Description: A 10 cm diameter dish was used for transfection with 10 ng of the dopamine D2 receptors and 40 μL of PEI. After 48 hours, the 10 cm dish was taken out from the cell culture room and the cultured cells had expressed the dopamine D2 receptors. A vacuum pump was used to suck off the culture medium, 3 mL of lysis buffer (50 mM Tris hydrochloric acid buffer, pH 7.4) was added to each well, and the cells were placed in a 4° C. freezer for 10 minutes. After the cells were detached, the cells were transferred to a 15 mL centrifuge tube and centrifuged at 1500 rpm for 5 minutes at 4° C., and the supernatant was discarded. The cell pellet was transferred to a tissue homogenizer, and 3 mL of lysis buffer was added and fully ground until the cells were broken. Then, cell suspension was equally divided into several EP tubes, centrifuged at 4° C. and 12000 rpm for 5 min, and the supernatant was discarded. The precipitate was the cell membrane component containing the dopamine D2 receptors and stored at −80° C.
First, a standard binding buffer (50 mM HEPES, 50 mM NaCl, 5 mM MgCl2, 0.5 mM EDTA, pH 7.4) was added to the cell membrane component containing the dopamine D2 receptors, and the cell membrane was disrupted and resuspended with an electric tissue homogenizer. 30 μL of membrane protein suspension was added to each well of a 96-well plate. Then, 30 μL of different drugs were added to the 96-well plate from left to right to ensure that the final drug concentrations were 10^−5 M, 10^−6 M, 10^−7 M, 10^−8 M, 10^−9 M and 0 M, with two replicates per treatment. Next, 30 μL [^3H]-N-Methylspiperone was added to each well of the 96-well plate, and the plate was incubated for 2 hours at room temperature in the dark. The unbound isotopes were removed by Whatman GF/C filter membrane and vacuum pump, and the isotopes bound to the receptors were detected by MicroBeta isotope liquid scintillation counter.
The affinity of the compounds of the present invention for the dopamine D2 receptors was determined by the method of radioligand competition experiment. In the first step, a cell membrane component containing specific dopamine D2 receptors was prepared. A10 cm dish was used for transfection with 10 ng of the dopamine D2 receptors and 40 μL of PEI. After 48 hours, the 10 cm dish was taken out from the cell culture room and the cultured cells had expressed the dopamine D2 receptors. A vacuum pump was used to suck off the culture medium, 3 mL of lysis buffer was added to each well, and the cells were placed in a 4° C. freezer for 10 minutes. After the cells were detached, the cells were transferred to a 15 mL centrifuge tube and centrifuged at 1500 rpm for 5 minutes at 4° C., and the supernatant was discarded. The cell pellet was transferred to a tissue homogenizer, and 3 mL of lysis buffer was added and fully ground until the cells were broken. Then, cell suspension was equally divided into several EP tubes, centrifuged at 4° C. and 12000 rpm for 5 min, and the supernatant was discarded. The precipitate was the cell membrane component containing the dopamine D2 receptors. […] First, a standard binding buffer was added to the cell membrane component containing the dopamine D2 receptors, and the cell membrane was disrupted and resuspended with an electric tissue homogenizer. 30 μL of membrane protein suspension was added to each well of a 96-well plate. Then, 30 μL of different drugs were added to the 96-well plate from left to right to ensure that the final drug concentrations were 10^−5 M, 10^−6 M, 10^−7 M, 10^−8 M, 10^−9 M and 0 M, with two replicates per treatment. Next, 30 μL [^3H]-Methylspiperone was added to each well of the 96-well plate. The plate was incubated for 2 hours at room temperature in the dark. Detection. The machine reading value reflected the amount of [^3H]-Methylspiperone bound on the membrane, and after further data processing, the affinity Ki value of different compounds for dopamine D2 receptors was obtained.

[4] = HEK-293T, I-1 to 19 n=3, I-20 to 27 single determination, read-out: Gai1 BRET EC50
[5] = n=3, read-out: Gai1 BRET pEC50 ± SEM (converted)
[6] = relative to the endogenous ligand dopamine
[7] = n=3, read-out: β-arrestin2 BRET pEC50 ± SEM (converted)
[8] = HEK-293T, I-1 to 19 n=3, I-20 to 27 single determination, read-out: β-arrestin2 BRET EC50
[9] = antagonistic activity, single determination, read-out: Gai1 BRET EC50 (antagonistic activity)

T1 sequence (P14416 whole entry, the tested form may be a part): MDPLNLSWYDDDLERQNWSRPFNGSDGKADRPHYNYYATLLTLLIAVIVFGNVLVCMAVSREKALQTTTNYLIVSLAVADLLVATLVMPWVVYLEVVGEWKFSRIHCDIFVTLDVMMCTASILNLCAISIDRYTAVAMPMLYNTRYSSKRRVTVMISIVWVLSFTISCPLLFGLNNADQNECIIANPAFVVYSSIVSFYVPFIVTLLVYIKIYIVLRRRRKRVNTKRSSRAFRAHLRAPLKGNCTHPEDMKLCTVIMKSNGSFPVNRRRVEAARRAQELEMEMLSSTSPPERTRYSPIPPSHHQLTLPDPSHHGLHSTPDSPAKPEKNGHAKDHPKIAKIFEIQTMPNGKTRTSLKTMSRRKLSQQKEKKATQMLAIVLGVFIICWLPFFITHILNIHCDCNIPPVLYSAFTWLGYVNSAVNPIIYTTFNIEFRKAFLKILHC

Row | Structure (SMILES) | EC50 (dopamine D2 receptors [1]; [4]) [µM] | Ki (dopamine D2 receptors [3]) [µM] | Emax (dopamine D2 receptors [1]; [6]) [%] | Emax (dopamine D2 receptors [2]; [6]) [%] | EC50 (dopamine D2 receptors [2]; [8]) [µM] | further results
1 | O=c1ccc2ccc(OCCCCN3CCN4c5cccc6[nH]cc(c56)CC4C3)cc2[nH]1 (single isomer, unassigned; (+)) [(+)-I-2] | 0.001 | 0.00887 | 95 | 89 | – | EC50 (dopamine D2 receptors [1]; [5]): 0.000851 µM; EC50 (dopamine D2 receptors [2]; [7]): 0.0158 µM
2 | O=c1ccc2ccc(OCCCCN3CCN4c5cccc6[nH]cc(c56)CC4C3)cc2[nH]1 (single isomer, unassigned; (-)) [(−)-I-2] | 0.003 | 0.00175 | – | – | – | EC50 (dopamine D2 receptors [1]; [5]): 0.00275 µM; Gai1 BRET Emax % ± SEM (dopamine D2 receptors [1]; [6]): 91 ± 3%; EC50 (dopamine D2 receptors [2]; [7]): 0.0182 µM; β-arrestin2 BRET Emax % ± SEM (dopamine D2 receptors [2]; [6]): 76 ± 2%
3 | c1cc2c3c(c[nH]c3c1)CC1CN(CCCCOc3ccc4scnc4c3)CCN21 (stereo not drawn) [Compound I-3] | 0.0437 | – | 92 | 93 | 0.0646 | –
4 | Cc1nc2cc(OCCCCN3CCN4c5cccc6[nH]cc(c56)CC4C3)ccc2o1 (stereo not drawn) [Compound I-4, 5-(4-(4,6,6a,7,9,10-hexahydro-8H-pyrazino[1,2-a]pyrrolo[4,3,2-de]quinolin-8-yl)butoxy)-2-methylbenzo[d]oxazole] | 0.00668 | 0.0303 | 80 | 66 | 0.071 | Affinity pKi ± SEM (dopamine D2 receptors [3]): (7.52 ± 0.08)
5 | Cc1noc2cc(OCCCCN3CCN4c5cccc6[nH]cc(c56)CC4C3)ccc12 (stereo not drawn) [Compound I-5, 6-(4-(4,6,6a,7,9,10-hexahydro-8H-pyrazino[1,2-a]pyrrolo[4,3,2-de]quinolin-8-yl)butoxy)-3-methylbenzo[d] is oxazole] | 0.00744 | 0.0371 | 83 | 61 | 0.054 | Affinity pKi ± SEM (dopamine D2 receptors [3]): (7.43 ± 0.09)
6 | c1cc2c3c(c[nH]c3c1)CC1CN(CCCOc3ccc4c(c3)OCO4)CCN21 (stereo not drawn) [Compound I-9, 8-(3-(benzo[d][1,3]dioxo1-5-yloxy)propyl)-6,6a,7,8,9,10-hexahydro-4H-pyrazino[1,2-a]pyrrolo[4,3,2-de]quinoline] | 0.166 | – | 92 | 96 | 0.148 | –
7 | O=C(N[C@H]1CC[C@H](CCN2CCN3c4cccc5[nH]cc(c45)CC3C2)CC1)N1CCCC1 (stereo partly drawn) [Compound I-11, N-(4-(2-(4,6,6a,7,9,10-hexahydro-8H-pyrazino[1,2-a]pyrrolo[4,3,2-de]quinolin-8-yl)ethyl)trans-cyclohexyl)tetrahydropyrrole-l-carboxamide] | 0.00933 | – | 91 | 87 | 0.0112 | –
8 | OC(CCCN1CCN2c3cccc4[nH]cc(c34)CC2C1)c1ccc(F)cc1 (stereo not drawn) [Compound I-25, 1-(4-fluorobenzene)-4-(4,6,6a,7,9,10-hexahydro-8H-pyrazino[1,2-a]pyrrolo[4,3,2-de]quinolin-8-yl)-1-butanol] | 0.00748 | – | 29 | 30 | 0.0096 | –
9 | Cn1cc2c3c(cccc31)N1CCN(CCCC(=O)c3ccc(F)cc3)CC1C2 (stereo not drawn) [Compound I-26, 1-(4-fluorobenzene)-4-(4-methyl-4,6,6a,7,9,10-hexahydro-8H-pyrazino[1,2-a]pyrrolo[4,3,2-de]quinolin-8-yl)-1-butanone] | – | – | – | – | – | EC50 (dopamine D2 receptors [1]; [9]): 7.62 µM; β-arrestin2 BRET EC50 (dopamine D2 receptors [2]; HEK-293T, I-1 to 19 n=3, I-20 to 27 single determination): Inactive
10 | Cn1cc2c3c(cccc31)N1CCN(CCCC(O)c3ccc(F)cc3)CC1C2 (stereo not drawn) [Compound I-27, 1-(4-fluorobenzene)-4-(4-methyl-4,6,6a,7,9,10-hexahydro-8H-pyrazino[1,2-a]pyrrolo[4,3,2-de]quinolin-8-yl)-1-butanol] | – | – | – | – | – | EC50 (dopamine D2 receptors [1]; [9]): 1.2 µM; EC50 (dopamine D2 receptors [2]; antagonistic activity, single determination, read-out: β-arrestin2 BRET EC50 (antagonistic activity)): 1.54 µM

More lines, main results first:

Row | EC50 (dopamine D2 receptors [1]; [4]) [µM] | Ki (dopamine D2 receptors [3]) [µM] | Structure (SMILES) | Emax (dopamine D2 receptors [1]; [6]) [%] | Emax (dopamine D2 receptors [2]; [6]) [%] | EC50 (dopamine D2 receptors [2]; [8]) [µM] | further results
11 | 0.00664 | 0.0516 | c1cc2c3c(c[nH]c3c1)CC1CN(CCCCOc3ccc4c(c3)OCC4)CCN21 (stereo not drawn) [Compound I-6, 8-(4-((2,3-dihydrobenzofuran-6-yl)oxy)butyl)-6,6a,7,8,9,10-hexahydro-4H-pyrazino[1,2-a]pyrrolo[4,3,2-de]quinoline] | 86 | 61 | 0.0616 | Affinity pKi ± SEM (dopamine D2 receptors [3]): (7.29 ± 0.10)
12 | 0.0589 | – | CN(C)C(=O)N[C@H]1CC[C@H](CN2CCN3c4cccc5[nH]cc(c45)CC3C2)CC1 (stereo partly drawn) [Compound I-16] | 84 | 90 | 0.0407 | –
13 | 0.0102 | – | O=C1CCc2ccc(OC/C=C/CN3CCN4c5cccc6[nH]cc(c56)CC4C3)cc2N1 (stereo not drawn) [Compound I-20] | 74 | 88 | 0.0982 | –
14 | 0.00771 | – | O=c1ccc2ccc(OC/C=C/CN3CCN4c5cccc6[nH]cc(c56)CC4C3)cc2[nH]1 (stereo not drawn) [Compound I-21] | 77 | 90 | 0.0619 | –
15 | 0.0114 | – | O=C(CCCN1CCN2c3cccc4[nH]cc(c34)CC2C1)c1ccc(F)cc1 (stereo not drawn) [Compound I-24, 1-(4-fluorobenzene)-4-(4,6,6a,7,9,10-hexahydro-8H-pyrazino[1,2-a]pyrrolo[4,3,2-de]quinolin-8-yl)-1-butanone] | 38 | 26 | 0.0104 | –
